We go through 2 compounds from patent US11084805B2, “Compound derived from allulose” (CJ CHEILJEDANG CORPORATION, priority 2019, dated 2021).

Structures are written as SMILES.

This data set can be described thus: Evaluation of acid resistance of allulose disaccharide (residual percentage by HPLC after storage in citrate buffer). The note with it: for Residual percentage: 1% (w/v) in 10 mM citrate buffer. It counts as physicochemical. The protocol:
1% D1 solution was prepared (in 10 mM citrate buffer) to measure acid resistance thereof. Sucrose that is a disaccharide having a similar structure and D2 that is another allulose disaccharide were used as controls.
The pH of the solution was adjusted to pH 2.0, 4.0, and 6.0 using 10 mM citrate and sodium citrate buffers. The prepared solutions were respectively stored at room temperature ([…]), and purities of remaining substances were identified by HPLC analysis (HPX-87C column, 80° C., 60 min, 20 μl) at 0 hour, 24 hours, 72 hours, and 120 hours. The concentration of each substance was 1% (w/v) and reaction temperature was 40° C.
Those results which show statistically significant difference under the same experimental conditions were indicated by different alphabets.
The measured results with respect to storage time were analyzed using analysis of variance (ANOVA) as statistical analysis and tukey's multiple range test as post hoc analysis, and statistical significance was set to p<0.05.

As for `OCC1(O)O[C@H](CO[C@]2(CO)OC[C@@H](O)[C@@H](O)[C@H]2O)[C@@H](O)[C@H]1O` (stereo partly drawn) [D1, (2S,3R,4R,5R)-2-(hydroxymethyl)-2-(((2R,3S,4R)-3,4,5-trihydroxy-5-(hydroxymethyl)tetrahydrofuran-2-yl)methoxy)tetrahydro-2H-pyran-3,4,5-triol], where the note is “at pH 6 or less”, the “Acid resistance compared with D2 and sucrose” value is “higher acid resistance than that of D2 and sucrose”. Besides, the Residual percentage is, setting by setting: (pH 2, 40° C., 0 hr) 100.0%; (pH 2, 40° C., 24 hr) 85.9^A %; (pH 2, 40° C., 72 hr) 58.2^A %; (pH 2, 40° C., 120 hr) 44.6^A %; (pH 4, 40° C., 0 hr) 100.0%; (pH 4, 40° C., 24 hr) 99.0^A %. Further, the Residual percentage is recorded as 98.8^A % (pH 4, 40° C., 72 hr); 97.9^A % (pH 4, 40° C., 120 hr); 100.0% (pH 6, 40° C., 0 hr); 100.0% (pH 6, 40° C., 24 hr); 100.0% (pH 6, 40° C., 72 hr); 99.96^A* % (pH 6, 40° C., 120 hr). Also, for the setting “pH 2, after 120 hours”, the “Residual percentage of D1 relative to that of sucrose (higher than)” value is “about 130%”.

In the case of `OC[C@H]1O[C@@](CO)(O[C@H]2O[C@H](CO)[C@@H](O)[C@H](O)[C@H]2O)[C@@H](O)[C@@H]1O` [Sucrose, reference compound], the Residual percentage runs as follows: (pH 2, 40° C., 0 hr) 100.0%; (pH 2, 40° C., 24 hr) 81.2^B %; (pH 2, 40° C., 72 hr) 51.9^B %; (pH 2, 40° C., 120 hr) 34.4^B %; (pH 4, 40° C., 0 hr) 100.0%; (pH 4, 40° C., 24 hr) 98.1^A %. The Residual percentage is given as 95.8^B % (pH 4, 40° C., 72 hr); 92.9^B % (pH 4, 40° C., 120 hr); 100.0% (pH 6, 40° C., 0 hr); 100.0% (pH 6, 40° C., 24 hr); 99.9% (pH 6, 40° C., 72 hr); 99.58^A* % (pH 6, 40° C., 120 hr).
